Measured values published in patent publication US8207128B2, “Polypeptide inhibiting transmigration of leukocytes or growth and/or metastasis of cancer cells, and fusion protein thereof” (Supadelixir Inc., priority 2005, dated 2012).

Experiments:
mice with RA = assay: Transmigration of lymphocytes and myeloid cells in the spleens of RA mice, flow cytometry; type: in vivo; conditions: spleen, i.p. at 2-day intervals for 4 weeks, similar to MTX-treated group, FIG. 6
From the text: A polypeptide of SEQ ID NO: 26 (40 MOOD) was intraperitoneally administered to mice with RA, which had been induced in the same manner in EXPERIMENTAL EXAMPLE 2, at 2-day intervals for 4 weeks. Normal mice, saline-treated RA mice with intraperitoneal injection of a saline solution, and MTX-treated RA mice with intraperitoneal injection of a solution of MTX (100 □) in a saline solution (100 □) were used as control groups. Spleen tissues were harvested from the mice of all the experimental groups and washed with RPMI 1640 media, and single cells were isolated. After the total number of the single cells were counted, the single cells were stained with monoclonal antibodies (anti-CD3^+, CD4^+, CD8^+, CD11^+, CD19^+, CD69^+, Gr-1^+) capable of labeling T cells (CD3^+, CD4^+, CD8^+), activated T cells (CD3^+, CD69^+), B cells (CD19^+), and myeloid cells (CD11^+, Gr-1^+), and flow cytometry analysis was performed. The number of lymphocytes and myeloid cells migrated to […] was measured by determining the number of the T cells, the activated T cells, the B cells, and the myeloid cells per total cell number, and the results are illustrated in FIG. 6.

RA mice = assay: Migration of T cells, B cells and myeloid cells into the joint spaces of RA mice, synovial fluid flow cytometry; type: in vivo; conditions: dosing as in Experimental Example 3, similar to MTX-treated group, FIG. 7
Experimental: The polypeptide of the present invention, a saline solution, or MTX was administered to RA mice in the same manner as in EXPERIMENTAL EXAMPLE 3, and synovial fluid was obtained from the joint spaces of the mice of all the experimental groups. After the total cell number in the synovial fluid was counted, flow cytometry analysis was performed in the same manner as in EXPERIMENTAL EXAMPLE 3 to measure the number of T cells (CD3^+), B cells (CD19^+), and myeloid cells (CD11b^+, Gr-1^+) migrated to the joint spaces. The results are illustrated in FIG. 7.

[1] = system: B16-F10-Luc-G5 cells (mouse melanoma cell line); assay: In vivo transmigration of cancer cells, B16-F10-Luc-G5 injected into tail veins, lung and liver nodules; conditions: nude mice; 100 μg i.p. at 2-day intervals for 15 days; control peptide SEQ ID NO: 27; FIG. 17
Experimental: B16-F10-Luc-G5 cells (mouse melanoma cell line, Xenogen, U.S.A.) were injected into the tail veins of 10 nude mice (5 weeks old). The nude mice were divided into five mice for a control group and five mice for a test group. The control group was injected with a mixture of PBS with a peptide consisting of EEFDDAEEFDD (SEQ ID NO: 27) (control peptide) and the test group with a mixture of PBS with 100 μg of a peptide of SEQ ID NO: 26. The control peptide and the peptide of SEQ ID NO: 26 were intraperitoneally administered to the control group and the test group, respectively, at 2-day intervals for 15 days. Then, the nude mice were dissected and the lungs and livers were excised from the nude mice. Tumor nodules were counted.

SEQ ID NO: 26: polypeptide derived from the mouse CD99, corresponds to the polypeptide of SEQ ID No: 14 derived from human CD99 (SGGISDSDLAD; listed as Mus musculus)
migrated cell numbers of T cells, activated T cells, B cells and myeloid cells as fraction of saline-treated group (mice with RA): about ⅔
number of T cells, B cells and myeloid cells migrated to joint spaces, relative to saline-treated group (RA mice): 50-70%
degree of spread of melanoma (lung and liver nodules) relative to control group [1]: about 40%
